{"source": "patent US20130280327A1", "about": "“ZOLPIDEM-BASED ORODISPERSIBLE PHARMACEUTICAL TABLET” (Sanofi, priority 2010, published 2013)", "origin": "cited, not measured here", "settings": "hypnotic action, oral, conventional formulations"}
{"smiles": "Cc1ccc(-c2nc3ccc(C)cn3c2CC(=O)N(C)C)cc1", "note": "[zolpidem]", "values": [{"measurement": "duration of action", "value": "up to 6 hours"}]}
